Earlier results in paper PMC12737490, “Beta Toxins Isolated from the Scorpion Centruroides hirsutipalpus (Scorpiones; Buthidae) Affect the Function of Sodium Channels of Mammals” (Toxins, 2025).

Key:
[1] = system: Nav1.2; conditions: ref [34]; cited from earlier work
Source text: (§1) The Chirp9 peptide in the venom of C. hirsutipalpus has an abundance of 2.8%. It has an experimental mass of 7790.1 Da and a theoretical mass of 7790.9 Da. The sequence of Chirp9 (Figure 3B) shares 97% identity with the Cl13 toxin from the C. limpidus scorpion (UniProt C0HK69) and differs by only two amino acid substitutions: L5I and Q54A. These substitutions could modulate the toxic properties of the venom through structural alterations in the peptide that influence its interaction with target sites, possibly leading to increased potency or stability. The Cl13 toxin is found in C. limpidus ve ...

[2] = system: Nav1.4; conditions: ref [34]; cited from earlier work
Source text: as §1

[3] = system: Nav1.5; conditions: ref [34]; cited from earlier work
Source text: as §1

[4] = system: Nav1.6; conditions: ref [34]; cited from earlier work
Source text: as §1

[5] = system: sodium channel; conditions: stated as reported earlier; no reference in the sentence; cited from earlier work
[6] = system: hNav1.6 channel; conditions: ref [13]; cited from earlier work
Source text: When comparing the sequence of the new toxins β-NaScTxs from C. hirsutipalpus with sequences from different scorpions (Figure 3A) using BLASTp version 2.11.0, it is shown that the sequence of the toxin Chirp7 is 100% identical to the sodium toxin Ct1a (UniProt accession P18926) from the C. tecomanus scorpion.

Substance	effect on sodium currents [1]	effect on sodium currents [2]	effect on sodium currents [3]	effect on sodium currents [4]	effect on sodium channel inactivation kinetics [5]	effect on hNav1.6 channel [6]
Cl13: beta toxin from the C. limpidus scorpion, 97% identity with Chirp9	modifies sodium currents	modifies sodium currents	modifies sodium currents	modifies sodium currents	slow down the kinetics of sodium channel inactivation	
Ct1a: sodium toxin Ct1a from the C. tecomanus scorpion, sequence 100% identical to Chirp7						altering channel activation by lowering the action potential and decreasing the current amplitude
